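48-hour exposure; five concentrations; linearly interpolated endpoints. Abbreviation: GI50, concentration required for 50% inhibition of growth.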 Activity calls are given as the source filed them. Cut-off read from the data, not from the text of the source: active = GI50 up to about 1.1 µM and inactive = higher.
Assays:
Experiment in all cases: growth of human tumour cells (NCI), 48 h
[1] = system: ACHN
[2] = system: BT-549
[3] = system: CCRF-CEM
[4] = system: COLO 205
[5] = system: EKVX
[6] = system: HCT-116
[7] = system: HL-60
[8] = system: HOP-18
[9] = system: HOP-62
[10] = system: HT-29
[11] = system: MCF7
[12] = system: MDA-MB-231
[13] = system: Malme-3M
[14] = system: NCI-H460
[15] = system: OVCAR-4
[16] = system: PC-3
[17] = system: SF-268
[18] = system: SW-620
[19] = system: U-251
[20] = system: UACC-62

Structure (SMILES)	GI50 [1]	GI50 [2]	GI50 [3]	GI50 [4]	GI50 [5]	GI50 [6]	GI50 [7]	GI50 [8]	GI50 [9]	GI50 [10]	GI50 [11]	GI50 [12]	GI50 [13]	GI50 [14]	GI50 [15]	GI50 [16]	GI50 [17]	GI50 [18]	GI50 [19]	GI50 [20]
COc1cccc2c1C(=O)c1c(O)c3c(c(O)c1C2=O)C[C@@](O)(C(C)=O)C[C@@H]3OC1CC(N(C)C)C(O)C(C)O1 (stereo not given in full)	0.00337 µM (active)	0.00114 µM (active)	0.00412 µM (active)	0.00428 µM (active)	0.00485 µM (active)	0.00169 µM (active)	0.00387 µM (active)	0.0859 µM (active)	0.00344 µM (active)	0.00356 µM (active)	0.01 µM (active)	0.00132 µM (active)	0.0405 µM (active)	0.00383 µM (active)	0.0306 µM (active)	0.000206 µM (active)	0.00436 µM (active)	0.00348 µM (active)	0.00425 µM (active)	0.00427 µM (active)
CC(C)(C)N1CC1CNC(=O)C(=O)NCC1CN1C(C)(C)C (stereo not given)	1.29 µM (inactive)	29.9 µM (inactive)	0.665 µM (active)	3.79 µM (inactive)	14.2 µM (inactive)	3.97 µM (inactive)	0.411 µM (active)	1.07 µM (active)	1.31 µM (inactive)	2.45 µM (inactive)	9.31 µM (inactive)	63.4 µM (inactive)	3.4 µM (inactive)	1.53 µM (inactive)	28.5 µM (inactive)	14.9 µM (inactive)	3.03 µM (inactive)	3.08 µM (inactive)	3.05 µM (inactive)	2.18 µM (inactive)
COc1cc([C@@H]2c3cc4c(c(O)c3C[C@H]3COC(=O)[C@@H]32)OCO4)cc(OC)c1OC [BETA-PELTATIN A]	0.0241 µM (active)		1.8 µM (inactive)	0.0238 µM (active)	0.282 µM (active)	0.015 µM (active)		1.26 µM (inactive)	0.323 µM (active)		0.015 µM (active)	0.00596 µM (active)	0.0156 µM (active)	0.0254 µM (active)	0.0627 µM (active)	0.0241 µM (active)	0.015 µM (active)	0.015 µM (active)		
COc1ccc(NC(=O)CSc2nnc(-c3ccc(/N=C\c4ccc(Cl)cc4)cc3)o2)cc1	> 52.4 µM (inactive)	17 µM (inactive)	8.22 µM (inactive)	20 µM (inactive)	> 59.2 µM (inactive)	14.2 µM (inactive)	4.85 µM (inactive)	12.5 µM (inactive)	24.8 µM (inactive)	42.8 µM (inactive)	23.2 µM (inactive)	34.5 µM (inactive)	34 µM (inactive)	> 67.3 µM (inactive)	23.5 µM (inactive)	22 µM (inactive)	13.6 µM (inactive)	22.1 µM (inactive)	24.8 µM (inactive)	28.8 µM (inactive)
CCCCCCCCCCCCCCCCCC(=O)Nc1ccn(C2OC(CO)C(O)C2O)c(=O)n1 (stereo not given)	4.74 µM (inactive)	> 54.2 µM (inactive)	0.097 µM (active)	61.9 µM (inactive)	> 100 µM (inactive)	3.32 µM (inactive)	3.43 µM (inactive)	> 100 µM (inactive)	2.8 µM (inactive)	20.1 µM (inactive)	2.06 µM (inactive)	> 100 µM (inactive)	> 27.9 µM (inactive)	2.69 µM (inactive)	> 100 µM (inactive)	4.92 µM (inactive)	20.1 µM (inactive)	57.1 µM (inactive)	19.4 µM (inactive)	40.3 µM (inactive)

From ChEMBL document CHEMBL1201862, “PubChem BioAssay data set” (2004)
